Blank lines part the entries; values can stand above or below the molecule they belong to.
Tests used:
PGE2 = conditions: read-out: PGE2 inhibition IC50; cited from earlier work
rats = experiment: Gastric ulcerogenic liability in rats
[1] = test system: carrageenan induced edema in rat paw; experiment: Carrageenan induced edema model in rat paw; type: in vivo; conditions: 50 mg/kg oral; for Anti-inflammatory (AI) %, range over time points: range over 1, 3 and 5 h
COX-1 = molecular target: T1, COX-1 (Ovis aries, UniProt P05979); experiment: COX-1 inhibition, enzyme immunoassay; type: biochemical, ovine
T1 sequence (P05979 25-600): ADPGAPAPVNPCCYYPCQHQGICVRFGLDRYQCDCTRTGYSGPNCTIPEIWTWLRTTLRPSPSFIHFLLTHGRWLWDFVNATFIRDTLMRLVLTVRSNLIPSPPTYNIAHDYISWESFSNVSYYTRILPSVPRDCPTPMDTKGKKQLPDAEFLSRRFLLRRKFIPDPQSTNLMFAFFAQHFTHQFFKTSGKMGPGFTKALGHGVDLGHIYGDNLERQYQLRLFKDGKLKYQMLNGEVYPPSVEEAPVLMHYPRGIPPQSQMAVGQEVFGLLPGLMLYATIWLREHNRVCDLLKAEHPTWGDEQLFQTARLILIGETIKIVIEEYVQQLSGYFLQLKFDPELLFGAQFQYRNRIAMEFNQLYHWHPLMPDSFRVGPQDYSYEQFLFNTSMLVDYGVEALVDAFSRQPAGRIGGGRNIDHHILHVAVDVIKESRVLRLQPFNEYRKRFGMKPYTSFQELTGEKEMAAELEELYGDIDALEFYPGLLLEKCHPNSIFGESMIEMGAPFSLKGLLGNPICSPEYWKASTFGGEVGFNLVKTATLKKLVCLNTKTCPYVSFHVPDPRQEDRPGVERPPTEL

COX-2 = molecular target: T2, COX-2 (Ovis aries, UniProt P79208); experiment: COX-2 inhibition, enzyme immunoassay; type: biochemical, ovine; conditions: for SI = IC50 (COX-1)/ IC50 (COX-2): selectivity index
T2 sequence (P79208 17-603): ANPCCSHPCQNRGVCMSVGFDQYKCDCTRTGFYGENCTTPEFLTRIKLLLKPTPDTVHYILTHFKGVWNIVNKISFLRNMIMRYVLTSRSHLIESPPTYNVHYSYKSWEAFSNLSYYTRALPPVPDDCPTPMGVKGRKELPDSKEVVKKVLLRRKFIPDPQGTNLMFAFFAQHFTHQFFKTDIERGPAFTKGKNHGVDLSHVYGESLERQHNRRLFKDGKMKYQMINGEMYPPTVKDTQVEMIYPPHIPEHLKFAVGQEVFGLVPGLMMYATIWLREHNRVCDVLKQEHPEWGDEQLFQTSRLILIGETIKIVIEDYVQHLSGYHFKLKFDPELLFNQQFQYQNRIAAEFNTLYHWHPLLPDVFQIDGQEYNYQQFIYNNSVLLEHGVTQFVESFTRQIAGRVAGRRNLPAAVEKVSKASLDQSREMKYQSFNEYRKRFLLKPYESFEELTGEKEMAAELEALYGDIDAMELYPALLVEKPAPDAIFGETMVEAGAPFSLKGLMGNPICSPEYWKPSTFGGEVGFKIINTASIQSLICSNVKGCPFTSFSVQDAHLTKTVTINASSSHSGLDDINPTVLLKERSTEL

TNF-ὰ = conditions: cited from earlier work
interleukin IL-6 = conditions: cited from earlier work

SMILES: Cc1ccc(-c2cc(C(F)(F)F)nn2-c2ccc(S(N)(=O)=O)cc2)cc1 [Celecoxib, reference compound]
IC50 (PGE2): 100 nM
Relative Ulcerogenicity to Celecoxib (rats): 1
Ulcer Index (rats): 3.00 ± 0.09
Ulcer Number (rats): 3.25 ± 0.17
Anti-Inflammatory Activity % (AI) ([1]; 1 h): 43%
Paw edema (change of paw dimensions), mean ± SEM ([1]; 1 h): 0.83 ± 0.09
Anti-Inflammatory Activity % (AI) ([1]; 3 h): 43%
Paw edema (change of paw dimensions), mean ± SEM ([1]; 3 h): 0.80 ± 0.11
Anti-Inflammatory Activity % (AI) ([1]; 5 h): 54%
Paw edema (change of paw dimensions), mean ± SEM ([1]; 5 h): 0.65 ± 0.10

IC50 (COX-1): 3250 ± 70 nM
IC50 (COX-2): 690 ± 20 nM
SI = IC50 (COX-1)/ IC50 (COX-2) (COX-2): 4.71
SMILES: O=c1[nH]c(=S)[nH]c2c1C(c1cc(/N=N/c3ccc(-c4nc5ccccc5s4)cc3)ccc1O)c1c([nH]c(=S)[nH]c1=O)N2 [IIIi, (E)-5-(5-((4-(Benzo[D]thiazol-2-Yl)Phenyl)Diazenyl)-2-Hydroxyphenyl)-2,8-Dithioxo-2,3,5,8,9,10-Hexahydropyrido[2,3-D:6,5-D’]Dipyrimidine-4,6(1H,7H)-Dione]
Anti-Inflammatory Activity % (AI) ([1]; 1 h): 24%
Paw edema (change of paw dimensions), mean ± SEM ([1]; 1 h): 1.10 ± 0.14
Anti-Inflammatory Activity % (AI) ([1]; 3 h): 43%
Paw edema (change of paw dimensions), mean ± SEM ([1]; 3 h): 0.80 ± 0.15
Anti-Inflammatory Activity % (AI) ([1]; 5 h): 52%
Paw edema (change of paw dimensions), mean ± SEM ([1]; 5 h): 0.68 ± 0.13

SMILES: C[C@@H]1C[C@H]2[C@@H]3CCC4=CC(=O)C=C[C@]4(C)[C@@]3(F)[C@@H](O)C[C@]2(C)[C@@]1(O)C(=O)CO [dexamethasone]
inhibition of TNF-ὰ (TNF-ὰ): 72%
inhibition of interleukin IL-6 (interleukin IL-6): 86%

IC50 (COX-1): 11200 ± 270 nM
IC50 (COX-2): 950 ± 10 nM
SI = IC50 (COX-1)/ IC50 (COX-2) (COX-2): 11.82
SMILES: CCOC(=O)c1ccc(/N=N/c2ccc(O)c(C3c4c([nH]c(=S)[nH]c4=O)Nc4[nH]c(=S)[nH]c(=O)c43)c2)cc1 [IIIf, Ethyl (E)-4-((3-(4,6-Dioxo-2,8-Dithioxo-1,2,3,4,5,6,7,8,9,10-Decahydropyrido[2,3-D:6,5-D’]Dipyrimidin-5-Yl)-4-Hydroxyphenyl)Diazenyl)Benzoate]
Relative Ulcerogenicity to Celecoxib (rats): 1.25
Ulcer Index (rats): 3.75 ± 0.11
Ulcer Number (rats): 3.75 ± 0.15
Anti-Inflammatory Activity % (AI) ([1]; 1 h): 52%
Anti-Inflammatory Activity % (AI) ([1]; 3 h): 59%
Paw edema (change of paw dimensions), mean ± SEM ([1]; 3 h): 0.58 ± 0.11
Anti-Inflammatory Activity % (AI) ([1]; 5 h): 66%
Paw edema (change of paw dimensions), mean ± SEM ([1]; 5 h): 0.48 ± 0.14
Anti-inflammatory (AI) %, range over time points [1]: 52–66%

IC50 (COX-1): 7840 ± 160 nM
IC50 (COX-2): 2430 ± 70 nM
SI = IC50 (COX-1)/ IC50 (COX-2) (COX-2): 3.23
SMILES: CCOC(=O)c1ccc(/N=N/c2cc(C3c4c([nH]c(=S)[nH]c4=O)Nc4[nH]c(=S)[nH]c(=O)c43)c(OC)cc2OC)cc1 [IIIh, Ethyl (E)-4-((5-(4,6-Dioxo-2,8-Dithioxo-1,2,3,4,5,6,7,8,9,10-Decahydropyrido[2,3-D:6,5-D’]Dipyrimidin-5-Yl)-2,4-Dimethoxyphenyl)Diazenyl)Benzoate]
Relative Ulcerogenicity to Celecoxib (rats): 1.75
Ulcer Index (rats): 5.25 ± 0.13
Ulcer Number (rats): 6.50 ± 0.11
Anti-Inflammatory Activity % (AI) ([1]; 1 h): 67%
Paw edema (change of paw dimensions), mean ± SEM ([1]; 1 h): 0.49 ± 0.05
Anti-Inflammatory Activity % (AI) ([1]; 5 h): 57%
Anti-inflammatory (AI) %, range over time points [1]: 57–67%

SMILES: COc1ccc2c(c1)c(CC(=O)O)c(C)n2C(=O)c1ccc(Cl)cc1 [Indomethacin, reference compound]
Relative Ulcerogenicity to Celecoxib (rats): 7.5
Ulcer Index (rats): 22.5 ± 0.21
Ulcer Number (rats): 14.25 ± 0.31

Reference: publication PMC8807947 (Journal of Inflammation Research, 2022)
